Consider 1 molecule from article PMC8958504 (Journal of Medicinal Chemistry, 2022).

Values joined by “and” are separate entries in the source; they are usually repeats but may differ in a detail not shown here. Equal entries are not always repeated. “Also recorded” adds a separate entry of the source.

In series [1] the target is T1, QR2 (Mesocricetus auratus, UniProt A0ABM2YAB8).
T1 sequence (A0ABM2YAB8 1-231): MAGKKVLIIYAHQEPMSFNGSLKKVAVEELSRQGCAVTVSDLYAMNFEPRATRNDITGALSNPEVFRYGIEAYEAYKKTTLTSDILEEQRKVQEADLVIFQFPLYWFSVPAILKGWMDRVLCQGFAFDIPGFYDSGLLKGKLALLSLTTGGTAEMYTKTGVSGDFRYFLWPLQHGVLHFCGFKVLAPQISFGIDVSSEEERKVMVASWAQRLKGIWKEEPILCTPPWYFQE
In words: biochemical. The protocol: The QR2 experiments were performed in membrane homogenates of hamster brains (https://www.eurofins.fr, catalog ref. 0088). […] First, radioligand displacement was measured at a fixed compound concentration (10 μM) in each receptor.

The test system of series [2] is p65. As to the kind of experiment: Western blotting of p65 in hippocampal slices exposed to OA. It counts as cell-based, mouse. Conditions: hippocampal slices treated with OA. From the text:
(§1) As iNOS can be produced through the NF-κB (nuclear factor kappa-light-chain-enhancer of activated B cells) pathway, we analyzed the levels of p65, one of the components that form the NF-κB transcription factor family.[82] […] We also measured HO-1, an inducible enzyme transcribed by NRF2, known for its anti-inflammatory, antioxidant, and neuroprotective effects. […] NRF2 and NF-κB signaling pathways cooperate to maintain the physiological homeostasis of cellular redox status and to regulate the cellular response to stress and inflammation.[19],[83] […] This last mechanism could be related to our resveratrol-based MTDL 4e.
(§2) After acute treatment, the hippocampal slices were lysed in a cold AKT lysis buffer (137 mM NaCl, 20 mM NaF, 10% glycerol, 20 mM Tris–HCl, 1% Nonidet P-40, 1 μg/mL leupeptin, 1 mM phenylmethylsulfonylfluoride, 1 mM sodium pyrophosphate, and 1 mM Na3VO4, pH 7.5). The total protein in each sample was quantified using the Pierce BCA protein kit (Thermo Fisher). 20 μg of protein was resolved by sodium dodecyl sulfate polyacrylamide gel electrophoresis (SDS-PAGE) and transferred to Immobilon-P PVDF membranes (Millipore Corp.). […] The membranes were washed, incubated with ECL WB Kit (GE Healthcare, Amersham), and exposed using a ChemiDoc MP system (Bio-Rad Laboratories) for the visualization of the specific bands, which were then analyzed with Fiji software.

Series [3] has as its system mouse hippocampal slices. Conditions: 1 μM, OA 1 μM, 6 h. As for the experimental part:
Once the treatment was ended, the cell viability was measured by the MTT method, cell death with the fluorescent probe PI (1 μg/mL), and ROS production with the fluorescent probe H2DCFDA (10 μL/mL).
(§3) Fluorescence from whole slices was measured as the mean intensity with an inverted Nikon eclipse T2000-U microscope (Nikon Instruments). […] The results were normalized to the basal condition, which was considered as 100%. Image analysis was performed using Fiji software.

The test system of series [4] is HO-1. As to the kind of experiment: Western blotting of HO-1 in hippocampal slices exposed to OA. Conditions: hippocampal slices treated with OA. It counts as cell-based, mouse.
Source text: as §1, §2

Series [5] deals with mice hippocampal organotypic cultures. As to the kind of experiment: Organotypic hippocampal culture, chronic OA treatment. The conditions noted are these: 1 μM, OA 10 nM, 72 h. It counts as cell-based, mouse. As for the experimental part:
6–10 days old mice (C57BL/6j) were sacrificed, and hippocampi were carefully removed in Hank’s balanced salt solution (HBBS). 300 μm slices were cut and placed in 0.4 μm culture inserts (Merck-Millipore, Germany) and stabilized for 24 h at 37 °C in neurobasal media (Gibco, Invitrogen) supplemented with 10% FBS (Gibco, Invitrogen). […] Finally, cell death and ROS production were determined with the fluorescent probes PI (1 μg/mL) and H2DCFDA (10 μg/mL), respectively.
as §3

Series [6] can be described thus: Thermodynamic solubility. The conditions noted are these: phosphate buffer pH 7.4. It counts as physicochemical.
Series [7] can be described thus: Oxygen radical absorbance capacity (ORAC-FL) assay. The conditions noted are these: trolox = 1.0.
A short description of series [8]: In vitro glutathione conjugation (LC-IT-MS). Conditions: 100 μM, GSH 1 mM, with or without GST, 37 °C, 1 h. It counts as in vitro ADME. As for the experimental part:
As the control, nonenzymatic reaction (mixture lacking GST) was also performed.
The reaction was maintained at 37 °C for 1 h. As a control, the nonenzymatic reaction mixture (mixture lacking GST) was incubated for 1 h at 37 °C. The reactions were stopped by adding 100 μL of 20% trifluoroacetic acid. The samples were prepared for analysis by adding 400 μL of a 50:50 mixture of MeOH/CH3CN. The reaction mixtures were analyzed using an API QSTAR pulsar I LC–MS/MS system (Applied Biosystems, Madrid, Spain) equipped with an electrospray ionization source and connected to a LC system 1100 series (Agilent Technologies, Madrid, Spain). […] The LC-IT-MS was operated in the positive ion mode.

Molecule `C#CCn1nc(/C=C/c2ccc(OC)cc2)oc1=O` [4e, 5-[(E)-2-(4-Methoxyphenyl)ethenyl]-3-(prop-2-yn-1-yl)-1,3,4-oxadiazol-2(3H)-one] showed an IC50 in series [1] of 570 ± 40 nM. Besides, the p65 level entry in series [2] is “slightly reduced p65 below to the basal value”. Moreover, in series [3], the “ROS production (H2DCFDA)” value is on record as “reduced ROS production to basal levels” and the “cell viability (MTT)” value is given as “significantly increased the cell viability to almost basal levels”. In addition, in series [4], the HO-1 level result is on record as “further increased”. In addition, in series [5], the “ROS production (H2DCFDA)” value was “significantly decrease ROS production to basal levels; also recorded: significantly reduced ROS production” and the “cell death (PI mean intensity)” value is on record as “reduced hippocampal death with a statistical trend (p = 0.07); also recorded: reduce cell death; although the differences were not statistically significant”. Besides, in series [6], the thermodynamic solubility was 76.1 µM and 19.5 µg/mL. Also, the “ORAC (trolox equiv)” value in series [7] was less than 0.1 trolox equiv. Moreover, in series [8], the GSH adduct formation entry is listed as “no peaks corresponding to GS-4e adducts were found”.
